The text below walks through data of patent publication US10221144B2, “Antibacterial compounds having broad spectrum of activity” (priority 2014, dated 2019).

What all share (format): biochemical
Assay [1] concerns the target T1, E. coli Topoisomerase IV (Escherichia coli, UniProt P0AFI2+P20083).
T1 construct: purchased Inspiralis, UK
Kind of assay: Topoisomerase IV decatenation assay (E. coli). The conditions noted are these: for % inhibition Topo IV / inhibition at 100 µM: conc. 100 μM; for inhibition at 200 µM: conc. 200 μM. On the procedure: (§1) The above compounds were tested for the inhibition of the enzyme DNA gyrase in a gyrase supercoiling assay and for the inhibition of the enzyme topoisomerase IV in a decatenation assay, in both Gram positive and Gram negative bacteria, according to the following methods.
(§2) Both the assays were carried out according to a set-up method modified from the article to Blanche F, et al. “Differential Behaviors of Staphylococcus aureus and Escherichia coli Type II DNA Topoisomerases”, Antimicrob. Agents Chemother., 1996, Vol. 40, No. 12 p. 2714-2720.
(§3) The compounds were screened at single concentration (200, 100 or 50 μM), in duplicate.
S. aureus and E. coli Topoisomerase IV decatenation kits (Inspiralis, UK) were used. A master mix with a total volume sufficient for the number of reactions to perform was prepared with the following reagents: 5× assay buffer (50 mM HEPES-KOH (pH 7.6), 100 mM potassium glutamate, 10 mM magnesium acetate, 10 mM DTT, 1 mM ATP, 50 μg/ml albumin), kDNA substrate (200 ng/reaction), RNase-DNase free water. Aliquots of this mix were dispensed in each tube, then 10× compound stock solutions or vehicle control (DMSO), were added in each reaction tube.
Reaction was started with Topoisomerase IV enzyme (0.5 U/reaction) addition.
(§4) A sample added with an equal volume of dilution buffer was used as negative control (without enzyme).
The reaction tubes were gentle vortexed and incubated 30 minutes at 37° C. Each reaction was stopped by adding 30 μl of Stop Buffer and 30 μl of chloroform/isoamyl alcohol (24/1), briefly vortexed for 5-10 seconds and centrifuged at 20000×g for 2 minutes. Samples taken from the upper phase were loaded into 1% agarose gel and subjected to electrophoresis for 1 hour at 80V constant voltage in TAE (40 mM Tris-acetate, 2 mM EDTA).
Data acquisition and analysis. Due to the high molecular mass, kDNA could not enter an agarose gel under normal electrophoresis conditions, but remained in the wells. In the presence of Topo IV topoisomerase mini-circles (2.5 Kb) were released from kDNA by decatenation and were quickly and easily resolved in the gel at relatively high voltages.
Bands were visualized by ethidium bromide staining (dil 1:20000) for 30 minutes followed by destaining in distilled water for 10 minutes.
For single concentration screening assay, in order to evaluate the compounds activity on the enzymes, the bands of decatenated DNAs in the gel were photographed by a digital imaging system ImageQuant LAS 4000 (GE Healthcare) according to manufacturer's instructions.
(§5) The fluorescent intensity of each band was analyzed by ImageQuant TL software and it was expressed as volume (volume of the uncalibrated quantity of material in the image feature after subtraction of the background intensity by using rolling ball method).
(§6) Each band intensity was compared, as percentage, to vehicle sample band intensity, which served as positive control, on the same gel.
(§7) Inhibitory activity was expressed as percent of inhibition versus the positive control.
(§8) The supercoiled or decatenated DNA bands obtained as described in Example 1 were analysed as follows.
(§9) Bands were analyzed by gel documentation equipment (Syngene, Cambridge, UK) and quantitated using Syngene Gene Tools software. Raw gel data (fluorescent band volumes) collected from Syngene, GeneTools gel analysis software were converted to a percentage of the 100% control (the fully supercoiled or decatenated DNA band). […] The IC50 data were calculated by using the global curve fit non-linear regression tool by selecting the Single, 2 Parameter fit function from the Exponential Decay equation category.

Assay [2] addresses T2, S. aureus DNA gyrase (Staphylococcus aureus, UniProt P0A0K8+P20831).
T2 construct: purchased Inspiralis, UK
Kind of assay: DNA gyrase supercoiling assay (S. aureus). The conditions noted are these: for % inhibition DNA gyrase / inhibition at 100 µM: conc. 100 μM; for % inhibition DNA gyrase / inhibition at 200 µM / inhibition at 100 µM: n/a = not active; for inhibition at 200 µM: conc. 200 μM. On the procedure: as §1, §2, §3
(§10) Reagents from S. aureus and E. coli Gyrase Supercoiling Assay kits (Inspiralis, UK) were used. A master mix with a total volume sufficient for the number of reactions to perform was prepared with the following reagents: 5× assay buffer, relaxed pBR322 substrate (0.5 μg/reaction), RNase-DNase free water. Aliquotes of this mix were dispensed in each tube, then 10× compound stock solutions or vehicle control (DMSO), were added to each reaction tube.
(§11) Reaction was started with E. Coli (2 U/reaction) or S. aureus (1 U/reaction) gyrase enzyme addition.
as §4
(§12) The reaction tubes were gentle vortexed and incubated 30 minutes at 37° C. Each reaction was stopped by adding 30 μl of Stop Buffer and 30 μl chloroform/isoamyl alcohol (24/1), briefly vortexed for 5-10 seconds and centrifuged at 20000×g for 2 minutes. Samples were loaded onto 1% agarose gel and subjected to electrophoresis for 1 hour at 80V constant voltage in TAE (40 mM Tris-acetate, 2 mM EDTA).
(§13) Data acquisition and analysis. Treatment of relaxed pBR322 with DNA gyrase converted the relaxed topoisomers (DNAs of different linking number) to the supercoiled form of the plasmid, which migrates faster on an agarose gel. An upper band might also be visible, which consists of open-circular (nicked) DNA which is present in the relaxed substrate but co-migrates with some of the relaxed topoisomers.
(§14) Bands were visualized by ethidium bromide staining (dilution 1:20000) for 30 minutes followed by destaining in distilled water for 10 minutes.
(§15) In order to evaluate the compounds activity on the enzyme, the bands of supercoiled DNAs in the gel were photographed by a digital imaging system ImageQuant LAS 4000 (GE Healthcare) according to manufacturer's instructions.
as §5, §6, §7, §8, §9

Assay [3] deals with T3, E. coli DNA gyrase (Escherichia coli, UniProt P0AES4+P0AES6).
T3 construct: purchased Inspiralis, UK
Description: DNA gyrase supercoiling assay (E. coli). To be noted: for % inhibition DNA gyrase / inhibition at 100 µM: conc. 100 μM; for inhibition at 200 µM: conc. 200 μM. As for the experimental part:
as §1, §2, §3, §10, §11, §4, §12, §13, §14, §15, §5, §6, §7, §8, §9

The mark [4] stands for this setting: E. coli, concentration-response curve, eight half-log concentrations 0.1 to 300 μM, read-out: IC50 Topo IV.
Where [5] appears, read: S. aureus, concentration-response curve, eight half-log concentrations 0.1 to 300 μM, read-out: IC50 DNA gyrase.
Setting [6] is: E. coli, concentration-response curve, eight half-log concentrations 0.1 to 300 μM, read-out: IC50 DNA gyrase.
The mark [7] stands for this setting: E. coli, n/a = not active, read-out: % inhibition Topo IV.

Structures can show the parent of a compound that is named as a salt. Where two headings read alike, the source gives them in different places.

T3 sequence (P0AES4 whole entry, one chain of several): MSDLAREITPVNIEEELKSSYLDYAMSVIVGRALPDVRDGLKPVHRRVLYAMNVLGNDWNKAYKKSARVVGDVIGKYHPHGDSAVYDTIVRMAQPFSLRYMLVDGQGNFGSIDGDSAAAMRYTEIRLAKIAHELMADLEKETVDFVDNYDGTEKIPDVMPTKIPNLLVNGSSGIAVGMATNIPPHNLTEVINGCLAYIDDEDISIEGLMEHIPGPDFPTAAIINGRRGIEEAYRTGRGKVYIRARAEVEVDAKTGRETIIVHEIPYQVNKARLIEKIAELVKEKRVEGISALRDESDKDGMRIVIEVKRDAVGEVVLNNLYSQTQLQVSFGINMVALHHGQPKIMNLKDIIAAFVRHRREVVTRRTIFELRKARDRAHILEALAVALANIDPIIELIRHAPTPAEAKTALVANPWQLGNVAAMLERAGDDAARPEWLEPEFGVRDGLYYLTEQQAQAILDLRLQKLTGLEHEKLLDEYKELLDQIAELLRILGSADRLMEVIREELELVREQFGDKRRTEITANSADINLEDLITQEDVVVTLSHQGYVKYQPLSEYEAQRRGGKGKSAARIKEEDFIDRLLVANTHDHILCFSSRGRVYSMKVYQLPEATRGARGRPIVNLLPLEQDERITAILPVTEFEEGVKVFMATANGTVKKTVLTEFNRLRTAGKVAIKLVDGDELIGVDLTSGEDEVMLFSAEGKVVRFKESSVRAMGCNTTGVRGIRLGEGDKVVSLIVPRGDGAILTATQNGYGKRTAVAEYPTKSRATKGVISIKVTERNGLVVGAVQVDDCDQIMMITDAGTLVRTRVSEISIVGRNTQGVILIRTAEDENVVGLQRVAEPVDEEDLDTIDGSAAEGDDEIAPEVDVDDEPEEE
T2 sequence (P0A0K8 whole entry): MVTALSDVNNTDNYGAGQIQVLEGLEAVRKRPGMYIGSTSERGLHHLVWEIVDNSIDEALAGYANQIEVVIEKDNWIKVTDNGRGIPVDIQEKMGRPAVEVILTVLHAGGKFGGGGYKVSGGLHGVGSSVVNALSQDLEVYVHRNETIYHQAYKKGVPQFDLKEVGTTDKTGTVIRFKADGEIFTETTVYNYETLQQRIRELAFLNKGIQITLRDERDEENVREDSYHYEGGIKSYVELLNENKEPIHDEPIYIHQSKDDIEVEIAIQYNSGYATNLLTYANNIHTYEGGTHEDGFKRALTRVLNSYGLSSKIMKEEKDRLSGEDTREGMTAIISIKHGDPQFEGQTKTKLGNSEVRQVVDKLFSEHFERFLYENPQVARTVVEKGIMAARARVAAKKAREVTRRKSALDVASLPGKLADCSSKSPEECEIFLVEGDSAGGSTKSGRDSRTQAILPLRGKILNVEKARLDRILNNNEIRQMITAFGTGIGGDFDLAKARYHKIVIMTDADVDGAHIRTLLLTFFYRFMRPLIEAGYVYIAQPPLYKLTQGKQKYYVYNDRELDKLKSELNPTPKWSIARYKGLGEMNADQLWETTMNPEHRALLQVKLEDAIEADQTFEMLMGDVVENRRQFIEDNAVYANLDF
T2 sequence (P20831 whole entry): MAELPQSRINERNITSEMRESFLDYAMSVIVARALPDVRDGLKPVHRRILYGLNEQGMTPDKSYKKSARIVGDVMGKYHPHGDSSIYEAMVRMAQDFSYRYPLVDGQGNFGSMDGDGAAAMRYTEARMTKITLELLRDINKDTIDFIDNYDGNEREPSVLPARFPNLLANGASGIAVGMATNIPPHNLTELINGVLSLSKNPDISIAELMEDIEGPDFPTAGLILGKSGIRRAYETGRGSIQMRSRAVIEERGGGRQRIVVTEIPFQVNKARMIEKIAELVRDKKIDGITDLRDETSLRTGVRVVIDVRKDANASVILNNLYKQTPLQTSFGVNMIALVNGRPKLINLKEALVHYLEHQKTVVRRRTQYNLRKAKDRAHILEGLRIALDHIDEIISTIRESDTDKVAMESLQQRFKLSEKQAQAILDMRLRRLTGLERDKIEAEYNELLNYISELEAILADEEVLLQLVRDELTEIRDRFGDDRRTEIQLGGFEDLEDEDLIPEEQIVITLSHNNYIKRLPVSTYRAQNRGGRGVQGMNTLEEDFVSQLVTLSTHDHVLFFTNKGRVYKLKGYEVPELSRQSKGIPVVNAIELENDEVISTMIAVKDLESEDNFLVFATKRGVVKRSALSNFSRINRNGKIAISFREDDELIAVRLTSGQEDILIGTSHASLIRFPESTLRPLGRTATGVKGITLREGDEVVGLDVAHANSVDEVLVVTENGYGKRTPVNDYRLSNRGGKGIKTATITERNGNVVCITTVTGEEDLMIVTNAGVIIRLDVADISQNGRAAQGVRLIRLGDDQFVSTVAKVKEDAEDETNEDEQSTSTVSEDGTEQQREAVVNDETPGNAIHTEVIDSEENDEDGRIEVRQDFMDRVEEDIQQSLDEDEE
T1 sequence (P20083 whole entry): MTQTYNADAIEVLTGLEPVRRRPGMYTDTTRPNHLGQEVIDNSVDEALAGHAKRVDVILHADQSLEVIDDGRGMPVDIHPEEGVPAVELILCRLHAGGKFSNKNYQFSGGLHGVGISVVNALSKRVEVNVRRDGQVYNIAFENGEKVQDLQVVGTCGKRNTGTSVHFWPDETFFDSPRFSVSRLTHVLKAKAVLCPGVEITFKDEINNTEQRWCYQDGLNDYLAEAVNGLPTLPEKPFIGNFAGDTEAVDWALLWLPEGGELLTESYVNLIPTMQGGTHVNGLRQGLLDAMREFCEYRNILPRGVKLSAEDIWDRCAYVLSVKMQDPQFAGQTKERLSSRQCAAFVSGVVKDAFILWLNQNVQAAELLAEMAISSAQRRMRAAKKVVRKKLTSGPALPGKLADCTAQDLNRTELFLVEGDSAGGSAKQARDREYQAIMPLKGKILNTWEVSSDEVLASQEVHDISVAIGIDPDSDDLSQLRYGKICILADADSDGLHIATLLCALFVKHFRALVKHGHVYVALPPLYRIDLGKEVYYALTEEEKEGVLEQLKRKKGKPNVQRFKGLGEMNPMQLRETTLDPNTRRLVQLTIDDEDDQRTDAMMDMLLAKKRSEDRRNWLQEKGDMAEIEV
T1 sequence (P0AFI2 whole entry): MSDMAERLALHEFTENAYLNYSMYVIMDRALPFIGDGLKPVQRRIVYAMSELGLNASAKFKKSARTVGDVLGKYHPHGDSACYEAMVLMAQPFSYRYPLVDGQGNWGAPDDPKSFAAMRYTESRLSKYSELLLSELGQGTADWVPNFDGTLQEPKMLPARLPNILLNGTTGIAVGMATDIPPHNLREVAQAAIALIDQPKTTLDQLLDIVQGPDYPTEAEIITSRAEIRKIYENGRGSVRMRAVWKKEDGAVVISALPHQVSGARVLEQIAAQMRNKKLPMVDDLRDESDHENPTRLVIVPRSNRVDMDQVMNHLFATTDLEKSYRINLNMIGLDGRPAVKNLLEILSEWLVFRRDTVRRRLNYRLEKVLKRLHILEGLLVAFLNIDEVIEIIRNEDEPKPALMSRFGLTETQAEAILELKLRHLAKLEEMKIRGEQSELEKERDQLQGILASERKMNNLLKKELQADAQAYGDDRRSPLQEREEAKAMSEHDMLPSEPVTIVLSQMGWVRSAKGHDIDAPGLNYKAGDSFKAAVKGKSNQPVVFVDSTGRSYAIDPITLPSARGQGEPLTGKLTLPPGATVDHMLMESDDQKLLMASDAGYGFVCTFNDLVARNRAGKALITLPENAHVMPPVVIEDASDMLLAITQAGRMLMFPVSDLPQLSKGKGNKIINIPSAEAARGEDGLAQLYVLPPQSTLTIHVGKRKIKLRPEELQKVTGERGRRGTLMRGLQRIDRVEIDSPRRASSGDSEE

Consider 1,3-dichloroisoquinoline [Compound 66], for which, in assay [1] (E. coli, n/a = not active), the “% inhibition Topo IV” value is listed as 58%. For the same compound, the IC50 in assay [1] (setting [4]) is 3.2 µM; in assay [2] (setting [5]) it was 12.1 µM; in assay [3] (setting [6]) it was 2.3 µM. The “% inhibition DNA gyrase” value in assay [2] (S. aureus) is listed as 87%; in assay [3] (E. coli, n/a = not active) it was 100%.
For 4-chloro-2H-chromen-2-one [Compound 63], the “% inhibition Topo IV” value in assay [1] (E. coli, n/a = not active) amounted to 51%. The “% inhibition DNA gyrase” value in assay [3] (E. coli, n/a = not active) is 98%.
Take “5-chloro-1,6-naphthyridine [Compound 65]”: the “% inhibition Topo IV” value in assay [1] (E. coli, n/a = not active) is listed as 80%. In addition, the results for the 50% inhibitory concentration (IC50) in assay [1] (setting [4]), in assay [2] (setting [5]) and in assay [3] (setting [6]) were 29.3 µM, 26.8 µM and 40.6 µM, respectively. In addition, the “% inhibition DNA gyrase” value is 80% in assay [2] (S. aureus) and 94% in assay [3] (E. coli, n/a = not active).
In the case of `O=c1cc(NC2CCN(CCCc3cccc4ocnc34)CC2)c2ccccc2o1` [Compound 27, 4-({1-[3-(1,3-benzoxazol-4-yl)propyl]piperidin-4-yl}amino)-2H-chromen-2-one], the inhibition at 200 µM in assay [1] (setting [7]) turned out to be 53%; in assay [3] (E. coli, n/a = not active), 61%.
On to `O=c1cc(NC2CCN(CCCc3nccc4ccccc34)CC2)c2ccccc2o1` [Compound 29, 4-({1-[3-(isoquinolin-1-yl)propyl]piperidin-4-yl}amino)-2H-chromen-2-one], for which the IC50 in assay [1] was determined as 10 µM; in assay [2], 20 µM; in assay [3] it was 6 µM. Besides, the inhibition at 200 µM in assay [1] (setting [7]) worked out at 100%; in assay [2] (S. aureus), 86%; in assay [3] (E. coli, n/a = not active), 92%.
As to `O=C1Cc2cccc(CCCN3CCC(Nc4cc(=O)oc5ccccc45)CC3)c2N1` [Compound 40, 7-(3-{4-[(2-oxo-2H-chromen-4-yl)amino]piperidin-1-yl}propyl)-1,3-dihydro-2H-indol-2-one], the inhibition at 200 µM in assay [1] (setting [7]) was found to be 78%; in assay [3] (E. coli, n/a = not active) it was 54%.
As to `c1ccc2c(N3CCN(CCCNCc4cc5c(cn4)OCS5)CC3)nccc2c1` [Compound 46, 3-[4-(isoquinolin-1-yl)piperazin-1-yl]-N-([1,3]oxathiolo-[5,4-c]pyridin-6-ylmethyl)propan-1-amine], the inhibition at 200 µM came to 94% in assay [1] (setting [7]); 100% in assay [2] (S. aureus); 57% in assay [3] (E. coli, n/a = not active).
`O=c1cc(NCCCN2CCN(c3nccc4ccc(Cl)cc34)CC2)c2ccccc2o1` [Compound 51, 4-({3-[4-(7-chloroisoquinolin-1-yl)piperazin-1-yl]propyl}amino)-2H-chromen-2-one]: the IC50 in assay [1] was 2.4 µM; in assay [2], 4.5 µM; in assay [3], 0.9 µM. Further, the inhibition at 100 µM in assay [1] (setting [7]) stood at 88%; in assay [2] (S. aureus), 91%; in assay [3] (E. coli, n/a = not active), 100%.
In the case of `O=c1cc(N[C@H]2C[C@H](N3CCN(c4nccc5ccccc45)CC3)C2)c2ccccc2o1` [Compound 55, trans-4-({3-[4-(isoquinolin-1-yl)piperazin-1-yl]cyclobutyl}amino)-2H-chromen-2-one], the IC50 worked out at 2.6 µM in assay [1], 5.6 µM in assay [2] and 2.1 µM in assay [3]. Further, the inhibition at 100 µM in assay [1] (setting [7]) was 95%; in assay [2] (S. aureus) it was 86%; in assay [3] (E. coli, n/a = not active), 94%.
Regarding `O=c1cc(NCCCN2CCN(c3nccc4cccnc34)CC2)c2ccccc2o1` [Compound 61, 4-({3-[4-(1,7-naphthyridin-8-yl)piperazin-1-yl]propyl}amino)-2H-chromen-2-one], the IC50 in assay [1] worked out at 20.2 µM; in assay [2], 8.7 µM; in assay [3] it was 3.3 µM. The inhibition at 100 µM in assay [1] (setting [7]) worked out at 92%; in assay [2] (S. aureus) it was 88%; in assay [3] (E. coli, n/a = not active), 92%.
On to `NC(=O)C1CN(c2nccc3ccccc23)CCN1CCCNc1cc(=O)oc2ccccc12` (stereo not shown) [Compound 89, 4-(isoquinolin-1-yl)-1-{3-[(2-oxo-2H-chromen-4-yl)amino]propyl}piperazine-2-carboxamide hydrochloride], for which the IC50 in assay [1] was 54 µM; in assay [3], 28 µM. In addition, the inhibition at 50 µM in assay [1] (E. coli, conc. 50 μM, n/a = not active, read-out: % inhibition Topo IV) is 51%; in assay [3] (E. coli, conc. 50 μM, n/a = not active), 87%.

For orientation: IC50 means the midpoint of a concentration-inhibition curve. Usually inhibition stands for the share of the control response that was lost under treatment.
